# ChEMBL document CHEMBL1131822, “Nonpeptidic HIV protease inhibitors: 6-alkyl-5,6-dihydropyran-2-ones possessing a novel and achiral 3-(2-t-butyl-5-methyl-4-sulfamate)phenylthio moiety” (Bioorg Med Chem Lett, 1999)
# Assays:
# [1] = Therapeutic index was determined; settings: read-out: Therapeutic index
# [2] = molecular target: T1, Human immunodeficiency virus type 1 protease (Human immunodeficiency virus 1, UniProt Q72874); assay: Tested in vitro for HIV protease (PR) binding affinity
# [3] = In vitro Cytotoxicity against uninfected CEM (human leukemia) cells.; assay type: functional; settings: CCRF-CEM, read-out: TC50 (the source's name)
# [4] = test system: Human immunodeficiency virus 1; assay: In vitro inhibition of HIV-1 (IIIB) cytopathic effects in CEM (human leukemia) cells.; assay type: functional, organism-based; settings: Human immunodeficiency virus 1, CCRF-CEM
# CYP3A4 [5] = molecular target: T2, CYP3A4 (Homo sapiens, UniProt P08684); assay: Inhibition of Cytochrome P450 3A4 at 10 uM; assay type: ADME
# T2 sequence (P08684 whole entry): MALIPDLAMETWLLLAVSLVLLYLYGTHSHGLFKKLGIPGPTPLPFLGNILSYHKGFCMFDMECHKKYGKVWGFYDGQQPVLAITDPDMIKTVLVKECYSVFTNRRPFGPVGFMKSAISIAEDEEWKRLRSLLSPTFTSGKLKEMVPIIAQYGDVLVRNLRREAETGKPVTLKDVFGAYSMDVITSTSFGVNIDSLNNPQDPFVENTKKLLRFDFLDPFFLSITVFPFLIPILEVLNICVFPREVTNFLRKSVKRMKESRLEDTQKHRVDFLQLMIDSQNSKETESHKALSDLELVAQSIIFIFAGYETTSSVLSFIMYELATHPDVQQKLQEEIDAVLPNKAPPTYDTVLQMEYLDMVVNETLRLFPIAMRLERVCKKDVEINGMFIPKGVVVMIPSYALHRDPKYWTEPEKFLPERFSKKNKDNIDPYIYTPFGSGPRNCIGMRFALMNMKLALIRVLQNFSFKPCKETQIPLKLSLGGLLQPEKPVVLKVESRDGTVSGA
# CYP2D6 [6] = assay: Inhibition of Cytochrome P450 2D6 at 10 uM; assay type: ADME
# CYP2D6 [7] = assay: Inhibition of Cytochrome P450 2D6 at 1 uM; assay type: ADME
# CYP3A4 [8] = molecular target: T2, CYP3A4; assay: Inhibition of Cytochrome P450 3A4 at 100 uM; assay type: ADME
# CYP2D6 [9] = assay: Inhibition of Cytochrome P450 2D6 at 100 uM; assay type: ADME
# CYP3A4 [10] = molecular target: T2, CYP3A4; assay: Inhibition of Cytochrome P450 3A4 at 1 uM; assay type: ADME
# CYP2C9 [11] = molecular target: T3, CYP2C9 (Homo sapiens, UniProt P11712); assay: Inhibition of Cytochrome P450 2C9 at 1 uM; assay type: ADME
# T3 sequence (P11712 whole entry): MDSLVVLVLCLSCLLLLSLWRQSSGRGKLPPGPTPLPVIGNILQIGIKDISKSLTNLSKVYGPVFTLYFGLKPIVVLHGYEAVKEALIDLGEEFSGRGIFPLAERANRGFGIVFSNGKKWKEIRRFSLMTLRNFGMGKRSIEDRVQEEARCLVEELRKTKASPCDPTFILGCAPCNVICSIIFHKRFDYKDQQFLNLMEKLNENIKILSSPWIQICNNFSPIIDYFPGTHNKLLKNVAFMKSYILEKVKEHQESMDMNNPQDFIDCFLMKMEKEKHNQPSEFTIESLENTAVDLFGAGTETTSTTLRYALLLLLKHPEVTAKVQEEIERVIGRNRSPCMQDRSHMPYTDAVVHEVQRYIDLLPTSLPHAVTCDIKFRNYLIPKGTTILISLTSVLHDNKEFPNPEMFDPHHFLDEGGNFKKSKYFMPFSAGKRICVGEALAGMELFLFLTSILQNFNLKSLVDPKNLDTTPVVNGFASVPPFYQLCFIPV
# CYP2C9 [12] = molecular target: T3, CYP2C9; assay: Inhibition of Cytochrome P450 2C9 at 100 uM; assay type: ADME
# CYP2C9 [13] = molecular target: T3, CYP2C9; assay: Inhibition of Cytochrome P450 2C9 at 10 uM; assay type: ADME
# [14] = molecular target: T1, Human immunodeficiency virus type 1 protease; assay: Compound was tested for binding affinity against HIV protease
IC50 [2],EC50 [4],inhibition at 10 µM (CYP3A4 [5]),inhibition at 10 µM (CYP2D6 [6]),inhibition at 1 µM (CYP2D6 [7]),inhibition at 100 µM (CYP3A4 [8]),inhibition at 100 µM (CYP2D6 [9]),inhibition at 1 µM (CYP3A4 [10]),Compound,selectivity ratio [1],CC50 [3],inhibition at 1 µM (CYP2C9 [11]),inhibition at 100 µM (CYP2C9 [12]),inhibition at 10 µM (CYP2C9 [13]),Ki [14]
4.8 nM,1400 nM,–,–,–,–,–,–,CCNS(=O)(=O)Oc1cc(C(C)(C)C)c(SC2=C(O)OC(CCc3ccc(O)cc3)(C3CCCCC3)CC2=O)cc1C (configuration not stated),48,67000 nM,–,–,–,–
3.1 nM,500 nM,22%,86%,39%,81%,100%,0%,Cc1cc(SC2=C(O)OC(CCc3ccc(O)cc3)(C(C)C)CC2=O)c(C(C)(C)C)cc1OS(=O)(=O)N1CCN(C)CC1 (configuration not stated),> 200,> 100000 nM,–,–,–,–
4.9 nM,1100 nM,–,–,–,–,–,–,CCNS(=O)(=O)Oc1cc(C(C)(C)C)c(SC2=C(O)OC(CCc3ccc(O)cc3)(C(C)C)CC2=O)cc1C (configuration not stated),> 91,> 100000 nM,–,–,–,–
20 nM,5000 nM,–,–,–,–,–,–,Cc1cc(SC2=C(O)OC(CCc3ccc(O)cc3)(C3CCCCC3)CC2=O)c(C(C)(C)C)cc1OS(=O)(=O)N(C)C (configuration not stated),12,60000 nM,–,–,–,–
1 nM,560 nM,–,–,–,–,–,–,Cc1cc(SC2=C(O)OC(CCc3ccc(N)cc3)(C(C)C)CC2=O)c(C(C)(C)C)cc1OS(=O)(=O)N1CCN(C)CC1 (configuration not stated),127,71000 nM,–,–,–,–
6.5 nM,> 7000 nM,–,–,–,–,–,–,Cc1cc(SC2=C(O)OC(C)(CCc3ccc(O)cc3)CC2=O)c(C(C)(C)C)cc1O (configuration not stated),< 1,7000 nM,–,–,–,–
6.2 nM,4300 nM,–,–,–,–,–,–,CCCNS(=O)(=O)Oc1cc(C(C)(C)C)c(SC2=C(O)OC(C)(CCc3ccc(O)cc3)CC2=O)cc1C (configuration not stated),15,66000 nM,–,–,–,–
8.9 nM,770 nM,–,–,–,–,–,–,CCNS(=O)(=O)Oc1cc(C(C)(C)C)c(SC2=C(O)OC(CCc3ccccc3)(C(C)C)CC2=O)cc1C (configuration not stated),87,67000 nM,–,–,–,–
3.4 nM,700 nM,–,–,–,–,–,–,Cc1cc(SC2=C(O)OC(CCc3ccc(O)cc3)(C(C)C)CC2=O)c(C(C)(C)C)cc1OS(=O)(=O)N(C)C (configuration not stated),100,70000 nM,–,–,–,–
7.1 nM,2300 nM,–,–,–,–,–,–,Cc1cc(SC2=C(O)OC(C)(CCc3ccc(O)cc3)CC2=O)c(C(C)(C)C)cc1OS(=O)(=O)N1CCN(C)CC1 (configuration not stated),> 44,> 100000 nM,–,–,–,–
2.3 nM,1500 nM,10%,89%,62%,58%,100%,1%,CCNS(=O)(=O)Oc1cc(C(C)(C)C)c(SC2=C(O)OC(C)(CCc3ccc(O)cc3)CC2=O)cc1C (configuration not stated),44,66000 nM,0%,46%,6%,–
9.7 nM,5100 nM,–,–,–,–,–,–,Cc1cc(SC2=C(O)OC(CCc3ccc(O)cc3)(C3CCCCC3)CC2=O)c(C(C)(C)C)cc1OS(=O)(=O)N1CCN(C)CC1 (configuration not stated),> 20,> 100000 nM,–,–,–,–
1.6 nM,8200 nM,–,–,–,–,–,–,Cc1cc(SC2=C(O)OC(C)(CCc3ccc(O)cc3)CC2=O)c(C(C)(C)C)cc1OS(=O)(=O)N(C)C (configuration not stated),> 12,> 100000 nM,–,–,–,–
3.9 nM,1650 nM,–,–,–,–,–,–,Cc1cc(SC2=C(O)OC(CCc3ccccc3)(C(C)C)CC2=O)c(C(C)(C)C)cc1OS(=O)(=O)N1CCN(C)CC1 (configuration not stated),> 61,> 100000 nM,–,–,–,–
2.6 nM,770 nM,–,–,–,–,–,–,Cc1cc(SC2=C(O)OC(CCc3ccc(O)cc3)(C(C)C)CC2=O)c(C(C)(C)C)cc1OS(=O)(=O)N1CCOCC1 (configuration not stated),109,84000 nM,–,–,–,–
4.3 nM,630 nM,–,–,–,–,–,–,CCNS(=O)(=O)Oc1cc(C(C)(C)C)c(SC2=C(O)OC(CCc3ccc(N)cc3)(C(C)C)CC2=O)cc1C (configuration not stated),117,74000 nM,–,–,–,–
3 nM,1200 nM,–,–,–,–,–,–,CCCNS(=O)(=O)Oc1cc(C(C)(C)C)c(SC2=C(O)OC(CCc3ccc(O)cc3)(C(C)C)CC2=O)cc1C (configuration not stated),> 83,> 100000 nM,–,–,–,–
26 nM,4300 nM,–,–,–,–,–,–,CCNS(=O)(=O)Oc1cc(C(C)(C)C)c(SC2=C(O)OC(CCc3ccc(O)cc3)(c3ccccc3)CC2=O)cc1C (configuration not stated),15,66000 nM,–,–,–,–
1.2 nM,1100 nM,–,–,–,–,–,–,CNS(=O)(=O)Oc1cc(C(C)(C)C)c(SC2=C(O)OC(CCc3ccc(O)cc3)(C(C)C)CC2=O)cc1C (configuration not stated),> 91,> 100000 nM,–,–,–,–
3.9 nM,740 nM,–,–,–,–,–,–,Cc1cc(SC2=C(O)OC(CCc3ccc(N)cc3)(C(C)C)CC2=O)c(C(C)(C)C)cc1OS(=O)(=O)N(C)C (configuration not stated),86,64000 nM,–,–,–,–
1.8 nM,5200 nM,–,–,–,–,–,–,Cc1cc(SC2=C(O)OC(C)(CCc3ccc(O)cc3)CC2=O)c(C(C)(C)C)cc1OS(N)(=O)=O (configuration not stated),13,69000 nM,–,–,–,–

Compound,IC50 [2],EC50 [4],inhibition at 10 µM (CYP3A4 [5]),inhibition at 10 µM (CYP2D6 [6]),inhibition at 1 µM (CYP2D6 [7]),inhibition at 100 µM (CYP3A4 [8]),inhibition at 100 µM (CYP2D6 [9]),inhibition at 1 µM (CYP3A4 [10]),selectivity ratio [1],CC50 [3],inhibition at 1 µM (CYP2C9 [11]),inhibition at 100 µM (CYP2C9 [12]),inhibition at 10 µM (CYP2C9 [13]),Ki [14]
Cc1cc(SC2=C(O)O[C@](CCc3ccc(N)cc3)(C(C)C)CC2=O)c(C(C)(C)C)cc1CO,1 nM,200 nM,16%,16%,3%,30%,33%,4%,1050,–,2%,59%,12%,0.11 nM
